US20200247800A1, “SUBSTITUTED BICYCLIC HETEROCYCLIC COMPOUNDS AS NADPH OXIDASE INHIBITORS” (Glenmark Pharmaceuticals S.A., priority 2017, published 2020)

Target: T1, human NOX4 (Homo sapiens, UniProt Q9NPH5)
T1 construct: expressed in transfected cells; membrane fraction used
T1 sequence (Q9NPH5 1-578): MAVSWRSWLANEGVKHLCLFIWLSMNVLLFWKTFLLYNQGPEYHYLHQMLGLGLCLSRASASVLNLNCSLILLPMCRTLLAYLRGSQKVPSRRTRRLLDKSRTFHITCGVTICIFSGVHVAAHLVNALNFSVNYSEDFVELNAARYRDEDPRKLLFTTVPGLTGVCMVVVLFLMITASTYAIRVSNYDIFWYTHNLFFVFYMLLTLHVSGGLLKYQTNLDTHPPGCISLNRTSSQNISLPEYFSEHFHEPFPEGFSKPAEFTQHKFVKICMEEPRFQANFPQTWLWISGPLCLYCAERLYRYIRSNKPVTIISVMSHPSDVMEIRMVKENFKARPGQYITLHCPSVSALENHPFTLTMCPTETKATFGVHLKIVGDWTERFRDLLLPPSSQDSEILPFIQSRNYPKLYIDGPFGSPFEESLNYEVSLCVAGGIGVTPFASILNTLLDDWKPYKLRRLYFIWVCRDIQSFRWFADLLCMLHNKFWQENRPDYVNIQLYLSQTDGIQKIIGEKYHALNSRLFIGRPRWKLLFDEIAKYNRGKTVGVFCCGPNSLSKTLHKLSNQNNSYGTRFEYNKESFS
T1 sequence (P13498 1-195 partner): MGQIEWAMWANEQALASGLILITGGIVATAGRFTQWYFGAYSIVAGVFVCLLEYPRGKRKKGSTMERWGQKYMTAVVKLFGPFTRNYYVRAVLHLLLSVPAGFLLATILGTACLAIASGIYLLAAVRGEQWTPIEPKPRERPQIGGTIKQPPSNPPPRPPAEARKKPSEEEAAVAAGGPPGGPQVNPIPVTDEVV
Test: Cell free membrane based in vitro NOX4 assay: H2O2 production by membranes expressing human NOX4, measured with Amplex Red
Type: biochemical
Conditions: for inhibition at 1 µM: 1.0 μM compound, read-out: Percentage inhibition at 1.0 μM; for inhibition at 10 µM: 10.0 μM compound, read-out: Percentage inhibition at 10.0 μM; for IC50: class symbols
Protocol: The inhibition of NOX4 activity was measured as inhibition of formation of reactive oxygen species (ROS) from oxygen in cell free assays. […] A cell free membrane based in vitro assay was developed by preparing membranes from cells stably overexpressing human NOX4. hNOX4/HEK stable cell line was generated in-house for this purpose. Membranes from stably transfected cells overexpressing human NOX4 were prepared by homogenizing the cells in buffer (20 mM HEPES, 1 mM EGTA, 0.5 mM DTT, 0.5% protease inhibitor cocktail, 1 mM PMSF, pH 7.6), followed by centrifugation at 160000 g for 30 min. Membrane fraction (pellet) was resuspended in storage buffer (homogenization buffer with 10% glycerol and 100 mM NaCl) and stored at −80° C. Protein concentration was determined by Bradford reagent. H202 production by membranes expressing human NOX4 was measured using Amplex Red (Invitrogen) by following a slightly modified version of the manufacturer's instruction manual. Briefly, membranes were incubated in assay buffer (25 mM HEPES, 0.12 M NaCl, 3 mM KCl, 1 mM MgCl2, pH 7.4) with Horse Radish Peroxidase (HRP) and Amplex Red. Reaction was started by addition of […] to the membrane mix. Antagonism of NOX4 inhibitors was measured by incubating the membrane with increasing concentrations of the inhibitors for 20 min on a plate shaker prior to addition of NADPH. H2O2 levels were measured for 10 min in a BMG Fluostar microplate reader with excitation and emission wavelengths of 544 nm and 590 nm respectively. Concentration response curves were plotted as a % of maximal response obtained in the absence of the inhibitor. IC50 value was calculated from concentration response curve by nonlinear regression analysis using GraphPad PRISM software.

SMILES | inhibition at 1 µM [%] | inhibition at 10 µM [%] | IC50 [nM]
Cn1nc(C(F)(F)F)c2c(=O)c(O)c(-c3ccc(NS(C)(=O)=O)cc3F)[nH]c21 [Example 237, N-{3-Fluoro-4-[5-hydroxy-1-methyl-4-oxo-3-(trifluoromethyl)-4,7-dihydro-1H-pyrazolo[3,4-b]pyridin-6-yl]phenyl}methanesulfonamide] | 60.9 | 74.3 | > 150
CCc1nn(CCN2CCOC(C)(C)C2=O)c2[nH]c(-c3c(F)cccc3F)c(O)c(=O)c12 [Example 184, 4-(2-(6-(2,6-Difluorophenyl)-3-ethyl-5-hydroxy-4-oxo-4,7-dihydro-1H-pyrazolo[3,4-b]pyridin-1-yl)ethyl)-2,2-dimethylmorpholin-3-one] | 78.8 | 81.6 | > 150
CCn1nc(C)c2c(=O)c(O)c(-c3ccccc3C(F)(F)F)[nH]c21 [Example 143, 1-Ethyl-5-hydroxy-3-methyl-6-(2-(trifluoromethyl)phenyl)-1H-pyrazolo[3,4-b]pyridin-4(7H)-one] | 73.1 |  | 100 to 150
COc1ccc(-c2[nH]c3c(c(C(F)(F)F)nn3C)c(=O)c2O)c(F)c1 [Example 47, 6-(2-Fluoro-4-methoxyphenyl)-5-hydroxy-1-methyl-3-(trifluoromethyl)-1,7-dihydro-4H-pyrazolo[3,4-b]pyridin-4-one] | 100 | 100 | 50 to 100
Cc1nn(CCN2CCOCC2)c2[nH]c(-c3c(F)cccc3F)c(O)c(=O)c12 [Example 88, 6-(2,6-Difluorophenyl)-5-hydroxy-3-methyl-1-(2-morpholinoethyl)-1H-pyrazolo[3,4-b]pyridin-4(7H)-one] | 100 | 100 | 50 to 100
Cc1nn(-c2ccc(F)c(F)c2)c2[nH]c(-c3c(F)cccc3F)c(O)c(=O)c12 [Example 37, 6-(2,6-Difluorophenyl)-1-(3,4-difluorophenyl)-5-hydroxy-3-methyl-1,7-dihydro-4H-pyrazolo[3,4-b]pyridin-4-one] | 100 | 100 | 50 to 100
Cn1ncc2c(=O)c(O)c(-c3ccccc3Cl)[nH]c21 [Example 3, 6-(2-Chlorophenyl)-5-hydroxy-1-methyl-1,7-dihydro-4H-pyrazolo[3,4-b]pyridin-4-one] | 93.7 | 100 | 100 to 150
O=c1c(O)c(-c2ccccc2Cl)[nH]c2c1c(C(F)(F)F)nn2CCN1CCOCC1 [Example 150, 6-(2-Chlorophenyl)-5-hydroxy-1-(2-morpholinoethyl)-3-(trifluoromethyl)-1H-pyrazolo[3,4-b]pyridin-4(7H)-one] | 67.1 | 84.4 | > 150
COc1ccc(-c2[nH]c3c(c(C)nn3Cc3ccccc3)c(=O)c2O)c(F)c1 [Example 77, 1-Benzyl-6-(2-fluoro-4-methoxyphenyl)-5-hydroxy-3-methyl-1H-pyrazolo[3,4-b]pyridin-4(7H)-one] | 88.9 | 72.1 | 100 to 150
Cc1ccc(-c2[nH]c3c(c(C)nn3C)c(=O)c2O)cc1C [Example 15, 6-(3,4-Dimethylphenyl)-5-hydroxy-1,3-dimethyl-1,7-dihydro-4H-pyrazolo[3,4-b]pyridin-4-one] | 50.1 |  | 
Cc1nn(CC(C)C)c2[nH]c(-c3c(F)cccc3F)c(O)c(=O)c12 [Example 108, 6-(2,6-Difluorophenyl)-5-hydroxy-1-isobutyl-3-methyl-1H-pyrazolo[3,4-b]pyridin-4(7H)-one] | 70.7 | 77.9 | 50 to 100
CCc1nn(CCN2CCOCC2=O)c2[nH]c(-c3c(F)cccc3F)c(O)c(=O)c12 [Example 168, 4-(2-(6-(2,6-Difluorophenyl)-3-ethyl-5-hydroxy-4-oxo-4,7-dihydro-1H-pyrazolo[3,4-b]pyridin-1-yl)ethyl)morpholin-3-one] | 94.9 | 93.5 | 50 to 100
